The structures appear in SMILES notation. The source made the active and inactive calls. The rule behind the calls is not given here. A value given as a limit tells only on which side of the number the result lay.

The first experiment deals with Hypoxia-inducible factor 1-alpha (Homo sapiens, UniProt Q16665). The experiment in a line: Inhibition of interaction between fluorescein-labeled proline hydroxylated human HIFalpha (556 to 575) and human VHL-human elongin B-human elongin C complex expressed in Escherichia coli by fluorescence polarization assay. (Polarisation of emitted light reports the rotation of a fluorescent probe.)
Chain of Hypoxia-inducible factor 1-alpha (Q16665 whole entry): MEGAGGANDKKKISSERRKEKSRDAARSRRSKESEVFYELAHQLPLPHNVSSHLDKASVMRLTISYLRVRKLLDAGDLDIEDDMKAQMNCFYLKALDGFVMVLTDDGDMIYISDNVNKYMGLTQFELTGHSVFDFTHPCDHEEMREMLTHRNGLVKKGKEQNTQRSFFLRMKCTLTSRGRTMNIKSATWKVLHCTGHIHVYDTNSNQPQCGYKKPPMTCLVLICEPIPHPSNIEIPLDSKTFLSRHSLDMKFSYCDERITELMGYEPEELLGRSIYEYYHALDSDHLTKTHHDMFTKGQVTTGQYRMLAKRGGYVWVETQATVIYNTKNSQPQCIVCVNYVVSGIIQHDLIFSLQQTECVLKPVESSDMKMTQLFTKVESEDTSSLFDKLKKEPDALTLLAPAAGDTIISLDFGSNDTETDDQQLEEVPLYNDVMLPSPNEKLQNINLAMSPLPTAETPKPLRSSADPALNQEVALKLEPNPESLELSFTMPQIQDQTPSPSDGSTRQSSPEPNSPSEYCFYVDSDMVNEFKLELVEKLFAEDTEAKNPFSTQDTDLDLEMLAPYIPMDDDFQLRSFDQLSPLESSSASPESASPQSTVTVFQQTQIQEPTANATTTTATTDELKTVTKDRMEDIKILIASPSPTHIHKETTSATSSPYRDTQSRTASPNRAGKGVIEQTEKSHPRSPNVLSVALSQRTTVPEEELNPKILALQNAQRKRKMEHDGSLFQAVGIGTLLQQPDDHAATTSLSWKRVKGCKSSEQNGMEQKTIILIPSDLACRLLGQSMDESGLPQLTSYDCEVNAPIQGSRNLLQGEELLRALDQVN
What is called Ki is the dissociation constant of the complex between target and ligand, obtained from inhibition or displacement. As to `CC[C@@H](C)[C@H](NC(=O)[C@H](Cc1ccc(O)cc1)NC(=O)[C@@H]1C[C@@H](O)CN1C(=O)[C@H](C)NC(=O)[C@H](CC(C)C)NC(=O)[C@H](C)NC(=O)[C@H](CCC(=O)O)NC(=O)[C@H](CC(C)C)NC(=O)[C@H](CC(=O)O)NC(=O)[C@H](CC(C)C)NC(=O)[C@@H](N)CC(=O)O)C(=O)N1CCC[C@H]1C(=O)N[C@@H](C)C(=O)N[C@@H](CC(=O)O)C(=O)N[C@@H](CC(=O)O)C(=O)N[C@@H](CC(=O)O)C(=O)N[C@@H](Cc1ccccc1)C(=O)N[C@@H](CCC(N)=O)C(=O)N[C@@H](CC(C)C)C(=O)N[C@@H](CCCN=C(N)N)C(N)=O`, the Ki stood at 3.7 µM.

Take `CC[C@@H](C)[C@H](NC(=O)[C@H](Cc1ccc(O)cc1)NC(=O)[C@H](CCO)NC(=O)[C@H](C)NC(=O)[C@H](CC(C)C)NC(=O)[C@H](C)NC(=O)[C@H](CCC(=O)O)NC(=O)[C@H](CC(C)C)NC(=O)[C@H](CC(=O)O)NC(=O)[C@H](CC(C)C)NC(=O)[C@@H](N)CC(=O)O)C(=O)N1CCC[C@H]1C(=O)N[C@@H](C)C(=O)N[C@@H](CC(=O)O)C(=O)N[C@@H](CC(=O)O)C(=O)N[C@@H](CC(=O)O)C(=O)N[C@@H](Cc1ccccc1)C(=O)N[C@@H](CCC(N)=O)C(=O)N[C@@H](CC(C)C)C(=O)N[C@@H](CCCN=C(N)N)C(N)=O`: the Ki came to 3.4 µM.

`CC[C@@H](C)[C@H](NC(=O)[C@H](Cc1ccc(O)cc1)NC(=O)[C@H](CC(N)=O)NC(=O)[C@H](C)NC(=O)[C@H](CC(C)C)NC(=O)[C@H](C)NC(=O)[C@H](CCC(=O)O)NC(=O)[C@H](CC(C)C)NC(=O)[C@H](CC(=O)O)NC(=O)[C@H](CC(C)C)NC(=O)[C@@H](N)CC(=O)O)C(=O)N1CCC[C@H]1C(=O)N[C@@H](C)C(=O)N[C@@H](CC(=O)O)C(=O)N[C@@H](CC(=O)O)C(=O)N[C@@H](CC(=O)O)C(=O)N[C@@H](Cc1ccccc1)C(=O)N[C@@H](CCC(N)=O)C(=O)N[C@@H](CC(C)C)C(=O)N[C@@H](CCCNC(=N)N)C(N)=O` displayed a Ki of 13 µM.

The molecule `CC[C@@H](C)[C@H](NC(=O)[C@H](Cc1ccc(O)cc1)NC(=O)[C@@H](NC(=O)[C@H](C)NC(=O)[C@H](CC(C)C)NC(=O)[C@H](C)NC(=O)[C@H](CCC(=O)O)NC(=O)[C@H](CC(C)C)NC(=O)[C@H](CC(=O)O)NC(=O)[C@H](CC(C)C)NC(=O)[C@@H](N)CC(=O)O)[C@H](C)O)C(=O)N1CCC[C@H]1C(=O)N[C@@H](C)C(=O)N[C@@H](CC(=O)O)C(=O)N[C@@H](CC(=O)O)C(=O)N[C@@H](CC(=O)O)C(=O)N[C@@H](Cc1ccccc1)C(=O)N[C@@H](CCC(N)=O)C(=O)N[C@@H](CC(C)C)C(=O)N[C@@H](CCCN=C(N)N)C(N)=O` came in with a Ki of 18 µM.

`CC[C@@H](C)[C@H](NC(=O)[C@H](Cc1ccc(O)cc1)NC(=O)[C@H](CCN)NC(=O)[C@H](C)NC(=O)[C@H](CC(C)C)NC(=O)[C@H](C)NC(=O)[C@H](CCC(=O)O)NC(=O)[C@H](CC(C)C)NC(=O)[C@H](CC(=O)O)NC(=O)[C@H](CC(C)C)NC(=O)[C@@H](N)CC(=O)O)C(=O)N1CCC[C@H]1C(=O)N[C@@H](C)C(=O)N[C@@H](CC(=O)O)C(=O)N[C@@H](CC(=O)O)C(=O)N[C@@H](CC(=O)O)C(=O)N[C@@H](Cc1ccccc1)C(=O)N[C@@H](CCC(N)=O)C(=O)N[C@@H](CC(C)C)C(=O)N[C@@H](CCCN=C(N)N)C(N)=O` came in with a Ki of 109 µM.

`CC[C@@H](C)[C@H](NC(=O)[C@H](Cc1ccc(O)cc1)NC(=O)[C@H](CC(=O)O)NC(=O)[C@H](C)NC(=O)[C@H](CC(C)C)NC(=O)[C@H](C)NC(=O)[C@H](CCC(=O)O)NC(=O)[C@H](CC(C)C)NC(=O)[C@H](CC(=O)O)NC(=O)[C@H](CC(C)C)NC(=O)[C@@H](N)CC(=O)O)C(=O)N1CCC[C@H]1C(=O)N[C@@H](C)C(=O)N[C@@H](CC(=O)O)C(=O)N[C@@H](CC(=O)O)C(=O)N[C@@H](CC(=O)O)C(=O)N[C@@H](Cc1ccccc1)C(=O)N[C@@H](CCC(N)=O)C(=O)N[C@@H](CC(C)C)C(=O)N[C@@H](CCCNC(=N)N)C(N)=O` displayed a Ki of 15 µM.

Take `CC[C@@H](C)[C@H](NC(=O)[C@H](Cc1ccc(O)cc1)NC(=O)[C@@H]1C[C@@H](F)CN1C(=O)[C@H](C)NC(=O)[C@H](CC(C)C)NC(=O)[C@H](C)NC(=O)[C@H](CCC(=O)O)NC(=O)[C@H](CC(C)C)NC(=O)[C@H](CC(=O)O)NC(=O)[C@H](CC(C)C)NC(=O)[C@@H](N)CC(=O)O)C(=O)N1CCC[C@H]1C(=O)N[C@@H](C)C(=O)N[C@@H](CC(=O)O)C(=O)N[C@@H](CC(=O)O)C(=O)N[C@@H](CC(=O)O)C(=O)N[C@@H](Cc1ccccc1)C(=O)N[C@@H](CCC(N)=O)C(=O)N[C@@H](CC(C)C)C(=O)N[C@@H](CCCNC(=N)N)C(N)=O`: the Ki turned out to be 5.8 µM.

Take `CC[C@@H](C)[C@H](NC(=O)[C@H](C)NC(=O)[C@H](CC(C)C)NC(=O)[C@H](C)NC(=O)[C@H](CCC(=O)O)NC(=O)[C@H](CC(C)C)NC(=O)[C@H](CC(=O)O)NC(=O)[C@H](CC(C)C)NC(=O)[C@@H](N)CC(=O)O)C(=O)N[C@@H](Cc1ccc(O)cc1)C(=O)N[C@H](C(=O)N1CCC[C@H]1C(=O)N[C@@H](C)C(=O)N[C@@H](CC(=O)O)C(=O)N[C@@H](CC(=O)O)C(=O)N[C@@H](CC(=O)O)C(=O)N[C@@H](Cc1ccccc1)C(=O)N[C@@H](CCC(N)=O)C(=O)N[C@@H](CC(C)C)C(=O)N[C@@H](CCCN=C(N)N)C(N)=O)[C@H](C)CC`: the Ki worked out at 50 µM.

The molecule `CC[C@@H](C)[C@H](NC(=O)[C@H](Cc1ccc(O)cc1)NC(=O)[C@@H](NC(=O)[C@H](C)NC(=O)[C@H](CC(C)C)NC(=O)[C@H](C)NC(=O)[C@H](CCC(=O)O)NC(=O)[C@H](CC(C)C)NC(=O)[C@H](CC(=O)O)NC(=O)[C@H](CC(C)C)NC(=O)[C@@H](N)CC(=O)O)C(C)C)C(=O)N1CCC[C@H]1C(=O)N[C@@H](C)C(=O)N[C@@H](CC(=O)O)C(=O)N[C@@H](CC(=O)O)C(=O)N[C@@H](CC(=O)O)C(=O)N[C@@H](Cc1ccccc1)C(=O)N[C@@H](CCC(N)=O)C(=O)N[C@@H](CC(C)C)C(=O)N[C@@H](CCCNC(=N)N)C(N)=O` gave a Ki of 16 µM.

In turn, `CC[C@@H](C)[C@H](NC(=O)[C@H](Cc1ccc(O)cc1)NC(=O)[C@@H]1CCCCN1C(=O)[C@H](C)NC(=O)[C@H](CC(C)C)NC(=O)[C@H](C)NC(=O)[C@H](CCC(=O)O)NC(=O)[C@H](CC(C)C)NC(=O)[C@H](CC(=O)O)NC(=O)[C@H](CC(C)C)NC(=O)[C@@H](N)CC(=O)O)C(=O)N1CCC[C@H]1C(=O)N[C@@H](C)C(=O)N[C@@H](CC(=O)O)C(=O)N[C@@H](CC(=O)O)C(=O)N[C@@H](CC(=O)O)C(=O)N[C@@H](Cc1ccccc1)C(=O)N[C@@H](CCC(N)=O)C(=O)N[C@@H](CC(C)C)C(=O)N[C@@H](CCCN=C(N)N)C(N)=O` yielded a Ki of 77 µM.

For the molecule `CC[C@@H](C)[C@H](NC(=O)[C@H](Cc1ccc(O)cc1)NC(=O)[C@H](CC(C)C)NC(=O)[C@H](C)NC(=O)[C@H](CC(C)C)NC(=O)[C@H](C)NC(=O)[C@H](CCC(=O)O)NC(=O)[C@H](CC(C)C)NC(=O)[C@H](CC(=O)O)NC(=O)[C@H](CC(C)C)NC(=O)[C@@H](N)CC(=O)O)C(=O)N1CCC[C@H]1C(=O)N[C@@H](C)C(=O)N[C@@H](CC(=O)O)C(=O)N[C@@H](CC(=O)O)C(=O)N[C@@H](CC(=O)O)C(=O)N[C@@H](Cc1ccccc1)C(=O)N[C@@H](CCC(N)=O)C(=O)N[C@@H](CC(C)C)C(=O)N[C@@H](CCCNC(=N)N)C(N)=O`, the Ki was 58 µM.

The molecule `CC[C@@H](C)[C@H](NC(=O)[C@H](Cc1ccc(O)cc1)NC(=O)[C@@H]1CCCN1C(=O)[C@H](C)NC(=O)[C@H](CC(C)C)NC(=O)[C@H](C)NC(=O)[C@H](CCC(=O)O)NC(=O)[C@H](CC(C)C)NC(=O)[C@H](CC(=O)O)NC(=O)[C@H](CC(C)C)NC(=O)[C@@H](N)CC(=O)O)C(=O)N1CCC[C@H]1C(=O)N[C@@H](C)C(=O)N[C@@H](CC(=O)O)C(=O)N[C@@H](CC(=O)O)C(=O)N[C@@H](CC(=O)O)C(=O)N[C@@H](Cc1ccccc1)C(=O)N[C@@H](CCC(N)=O)C(=O)N[C@@H](CC(C)C)C(=O)N[C@@H](CCCNC(=N)N)C(N)=O` had a Ki above 500 µM.

In a further experiment the test system is HeLa. The experiment in a line: Induction of HIFalpha stabilization in human HeLa cells assessed as HIFalpha accumulation at 1 mM incubated under normoxic condition for 6 hrs by Western blot analysis. The experiment is classed as functional, cell-based. (In western blotting, separated proteins are transferred to a membrane and probed.)
In the case of `CC[C@@H](C)[C@H](NC(=O)[C@H](Cc1ccc(O)cc1)NC(=O)[C@H](CCO)NC(=O)[C@H](C)NC(=O)[C@H](CC(C)C)NC(=O)[C@H](C)NC(=O)[C@H](CCC(=O)O)NC(=O)[C@H](CC(C)C)NC(=O)[C@H](CC(=O)O)NC(=O)[C@H](CC(C)C)NC(=O)[C@@H](N)CC(=O)O)C(=O)N1CCC[C@H]1C(=O)N[C@@H](C)C(=O)N[C@@H](CC(=O)O)C(=O)N[C@@H](CC(=O)O)C(=O)N[C@@H](CC(=O)O)C(=O)N[C@@H](Cc1ccccc1)C(=O)N[C@@H](CCC(N)=O)C(=O)N[C@@H](CC(C)C)C(=O)N[C@@H](CCCNC(=N)N)C(N)=O`, the outcome was Active.

For `CC[C@@H](C)[C@H](NC(=O)[C@H](Cc1ccc(O)cc1)NC(=O)[C@@H]1C[C@@H](F)CN1C(=O)[C@H](C)NC(=O)[C@H](CC(C)C)NC(=O)[C@H](C)NC(=O)[C@H](CCC(=O)O)NC(=O)[C@H](CC(C)C)NC(=O)[C@H](CC(=O)O)NC(=O)[C@H](CC(C)C)NC(=O)[C@@H](N)CC(=O)O)C(=O)N1CCC[C@H]1C(=O)N[C@@H](C)C(=O)N[C@@H](CC(=O)O)C(=O)N[C@@H](CC(=O)O)C(=O)N[C@@H](CC(=O)O)C(=O)N[C@@H](Cc1ccccc1)C(=O)N[C@@H](CCC(N)=O)C(=O)N[C@@H](CC(C)C)C(=O)N[C@@H](CCCNC(=N)N)C(N)=O`, the result was Active.

For the molecule `CC[C@@H](C)[C@H](NC(=O)[C@H](Cc1ccc(O)cc1)NC(=O)[C@@H]1C[C@@H](O)CN1C(=O)[C@H](C)NC(=O)[C@H](CC(C)C)NC(=O)[C@H](C)NC(=O)[C@H](CCC(=O)O)NC(=O)[C@H](CC(C)C)NC(=O)[C@H](CC(=O)O)NC(=O)[C@H](CC(C)C)NC(=O)[C@@H](N)CC(=O)O)C(=O)N1CCC[C@H]1C(=O)N[C@@H](C)C(=O)N[C@@H](CC(=O)O)C(=O)N[C@@H](CC(=O)O)C(=O)N[C@@H](CC(=O)O)C(=O)N[C@@H](Cc1ccccc1)C(=O)N[C@@H](CCC(N)=O)C(=O)N[C@@H](CC(C)C)C(=O)N[C@@H](CCCNC(=N)N)C(N)=O`, the result was Active.

For the molecule `CC[C@@H](C)[C@H](NC(=O)[C@H](Cc1ccc(O)cc1)NC(=O)[C@H](CC(C)C)NC(=O)[C@H](C)NC(=O)[C@H](CC(C)C)NC(=O)[C@H](C)NC(=O)[C@H](CCC(=O)O)NC(=O)[C@H](CC(C)C)NC(=O)[C@H](CC(=O)O)NC(=O)[C@H](CC(C)C)NC(=O)[C@@H](N)CC(=O)O)C(=O)N1CCC[C@H]1C(=O)N[C@@H](C)C(=O)N[C@@H](CC(=O)O)C(=O)N[C@@H](CC(=O)O)C(=O)N[C@@H](CC(=O)O)C(=O)N[C@@H](Cc1ccccc1)C(=O)N[C@@H](CCC(N)=O)C(=O)N[C@@H](CC(C)C)C(=O)N[C@@H](CCCNC(=N)N)C(N)=O`, the result was inactive.

These data come from ChEMBL document CHEMBL1153040, “HIF-1alpha peptide derivatives with modifications at the hydroxyproline residue as activators of HIF-1alpha” (Bioorg Med Chem Lett, 2009).
